Laboratory results: patent publication US4775692A, “2,5,6,7-tetranor-4,8-inter-m-phenylene PGI2 derivatives” (Toray Industries, Inc., priority 1986, dated 1988)
Converted amounts (≈) assume the structure as drawn. Like-named read-outs stand apart in the source and are kept apart here.

What was measured:
gastric acid secretion [1] = experiment: Inhibiting effect of gastric acid secretion, pylorus-ligated rat (Shay); format: in vivo; conditions: pylorus ligation, injected into duodenum, 5 hours
Experimental: (§1) Inhibiting effect of gastric acid secretion
Under anesthesia by ether, the abdomen of the rat was incised in its median and a pylorus was ligated with silk thread according to Shay (Gastroenterology 5, 43 (1945)). Simultaneously, the compound was injected into a duodenum of the rat and then the incision was closed.
Five hours later, the median-incision of the abdomen was again performed and the esophargus was ligated and then the whole stomach was removed.
The stomach was cut along a greater curvature and the contents thereof was transferred into a graduated centrifuge tube. After centrifugation at 3,000 rpm for 10 min., a volume of a gastric juice was measured and a part of its supernatant was titrated to pH 7 with 0.1N NaOH using a pH-stat (Radio meter).
The mean dose of the compounds which may reduce the volume of gastric juice (ml) and acidity (mEq/ml) of a group of five animals to 50% of that of the controls were designated respectively as ED50.

[2] = system: blood pressure of the carotid; experiment: Hypotensive effect (carotid blood pressure, anesthetized rat); format: in vivo; conditions: chloralose-anesthetized Wistar male rat, injected via catheter connected to femoral artery; read-out: Hypotensive effect ED25 (dose reducing blood pressure by 25 mmHg)
Experimental: A catheter was inserted to a carotid of the Wistar male rat under chloralose anesthesia. Another end of the catheter was connected to a polygraph with a pressure-transducer to detect a blood pressure of the carotid. The compound was injected via catheter connected to a femoral artery. The dose of the compound which may reduce the blood pressure in an amount of 25 mmHg was designated as ED25.

platelet aggregation = experiment: Inhibiting effect of platelet aggregation (ADP-induced, human platelet-rich plasma); format: cell-based; conditions: human PRP, compound added one minute before ADP
Experimental: Inhibiting effect of platelet aggregation
The blood taken from a human median cubital vein was centrifuged at 800 rpm for 10 min. and a supernatant thereof was used as a platelet-rich plasma (PRP). An aliquot of PRP thus obtained was put into a small tube, to which […] (ADP) was added to induce platelet aggregation. The extent of aggregation was determined by detecting a change in turbidity of the aliquot by an apparatus for measuring platelet aggregation (Rika-Denki, Tokyo). The compound was added one minute before the addition of ADP. The concentration of the compound which may reduce the platelet aggregation, 50% of the control was designated as IC50.

gastric acid secretion [3] = experiment: Inhibiting effect of gastric acid secretion, perfused stomach, pentagastrin-stimulated (Ghosh & Schild); format: in vivo, male SD rat; conditions: urethane-anesthetized SD rat, pentagastrin 0.05 μg/kg/min, injected through femoral vein; ratio of area index to that of PGE2
Experimental: as §1
A male SD rat was incised in the abdomen under anesthesia by urethane and the lumen of a stomach was perfused with a physiolosical saline solution through a double-cannula inserted into a lumen of the stomach. A pH of a draining gastric acid was monitored using a pH-meter (M. Ghosh, H. Schild, Br. J. Pharmacol. 13, 54 (1958)). The secretion of gastric acid was stimulated by a continuous infusion of the pentagastrin at a rate of 0.05 μg/kg/min. When the pH of gastric acid became stable value of about 4, the compound was injected through a femoral vein. As an index of the inhibiting effect of gastric acid secretion by the compound was calculated from the area surrounded by the curve drawn by the time course of the pH of gastric acid, from the point increase by the injection of the compound and to the point it came back to baseline. The index thus obtained was compared to that of PGE2 and a ratio therebetween was shown in Table 3, as a relative effect of the compound.

corpus of stomach = experiment: Gastric cytoprotection effect (lesion length / ulcer index after oral 0.2N NaOH); format: in vivo; conditions: 1 h, 30 min before oral 0.2N NaOH, lesion measured one hour later, read-out: Gastric cytoprotection effect ED50 (dose reducing the sore to 50% of control)
Source text: Gastric cytoprotection effect
Gastric cytoprotection effect was studied according to the method by A. Robert (Gastroenterology, 77(3), 443, (1979)). Thirty min. after oral administration of the compound according to the invention, 0.2N NaOH was orally applied to the animals.
One hour later, the animals were killed under anesthesia by chloroform. The stomach was removed and fixed in a solution of 5% formalin. After fixation, the stomach was cut along the greater curvature. A total length of the lesion appearing on the corpus of stomach was then measured and served as an ulcer index.
The dose of the compound which may reduce the sore to 50% of that of the control was designated as ED50.
The gastric cytoprotection effects of the compounds according to the invention, which is thus represented by ED50, are summarized in Table 1.

[4] = acidity (mEq/ml) to 50% of controls, read-out: Inhibiting effect of gastric acid secretion ED50, Acidity
[5] = volume (ml) to 50% of controls, read-out: Inhibiting effect of gastric acid secretion ED50, Volume of the gastric juice

IC50 (platelet aggregation)	SMILES	ED50 (gastric acid secretion [1]; [4])	ED50 (gastric acid secretion [1]; [5])	ED (25 mmHg) [2]	Inhibiting effect of gastric acid secretion, Relative effect (PGE2 = 1) (gastric acid secretion [3])	ED50 (corpus of stomach)
0.41 ng/mL (≈ 1.05 nM)	CCCCCC[C@H](O)/C=C/[C@@H]1[C@H]2c3cccc(OCC(=O)O)c3O[C@H]2C[C@H]1O (relative stereo) [Compound 160, 20a-Homo-2,5,6,7-tetranor-4-oxa-4,8-inter-m-phenylene PGI2]	450 µg/kg	97 µg/kg	0.23 µg/kg	13	
1.35 ng/mL (≈ 3.87 nM)	CC(C)[C@H](O)/C=C/[C@@H]1[C@H]2c3cccc(OCC(=O)O)c3O[C@H]2C[C@H]1O (relative stereo) [Compound 164, 16-Methyl-2,5,6,7,18,19,20-heptanor-4-oxa-4,8-inter-m-phenylene PGI2]	890 µg/kg	1340 µg/kg		12	9.6 µg/kg
1.54 ng/mL (≈ 4.25 nM)	CC(C)(C)[C@H](O)/C=C/[C@@H]1[C@H]2c3cccc(OCC(=O)O)c3O[C@H]2C[C@H]1O (relative stereo) [Compound 168, 16,16-Dimethyl-2,5,6,7,18,19,20-heptanor-4-oxa-4,8-inter-m-phenylene PGI2]			0.49 µg/kg	3.5	30.5 µg/kg
2.1 ng/mL (≈ 5.58 nM)	CCC(C)(C)[C@H](O)/C=C/[C@@H]1[C@H]2c3cccc(OCC(=O)O)c3O[C@H]2C[C@H]1O (relative stereo) [Compound 172, 16,16-Dimethyl-2,5,6,7,19,20-hexanor-4-oxa-4,8-inter-m-phenylene PGI2]			0.72 µg/kg	19	4.6 µg/kg
	CCCC(C)(C)[C@H](O)/C=C/[C@@H]1[C@H]2c3cccc(OCC(=O)O)c3O[C@H]2C[C@H]1O (relative stereo) [Compound 176, 16,16-Dimethyl-2,5,6,7,20-pentanor-4-oxa-4,8-inter-m-phenylene PGI2]			0.69 µg/kg	48	4.1 µg/kg
	CCCCC(C)(C)[C@H](O)/C=C/[C@@H]1[C@H]2c3cccc(OCC(=O)O)c3O[C@H]2C[C@H]1O (relative stereo) [Compound 180, 16,16-Dimethyl-2,5,6,7-tetranor-4-oxa-4,8-inter-m-phenylene PGI2]	1780 µg/kg	510 µg/kg	0.69 µg/kg	72	2.9 µg/kg
24 ng/mL (≈ 57.3 nM)	CCCCCC(C)(C)[C@H](O)/C=C/[C@@H]1[C@H]2c3cccc(OCC(=O)O)c3O[C@H]2C[C@H]1O (relative stereo) [Compound 184, 16,16-Dimethyl-20a-homo-2,5,6,7-tetranor-4-oxa-4,8-inter-m-phenylene PGI2]			0.5 µg/kg	85	2.3 µg/kg
	CC(C)C(C)(C)[C@H](O)/C=C/[C@@H]1[C@H]2c3cccc(OCC(=O)O)c3O[C@H]2C[C@H]1O (relative stereo) [Compound 196, 16,16,17-Trimethyl-2,5,6,7,19,20-hexanor-4-oxa-4,8 inter-m-phenylene PGI2]					150 µg/kg
	CC(C)(C1CCCCC1)[C@H](O)/C=C/[C@@H]1[C@H]2c3cccc(OCC(=O)O)c3O[C@H]2C[C@H]1O (relative stereo) [Compound 248, 16-cyclohexyl-16-methyl-2,5,6,7,18,19,20-heptanor-4-oxa-4,8-inter-m-phenylene PGI2]			11 µg/kg	13	31.1 µg/kg
	CC(C)(CC1CCCCC1)[C@H](O)/C=C/[C@@H]1[C@H]2c3cccc(OCC(=O)O)c3O[C@H]2C[C@H]1O (relative stereo) [Compound 252, 17-cyclohexyl-16,16-dimethyl-2,5,6,7,18,19,20-heptanor-4-oxa-4,8-inter-m-phenylene PGI2]			5.6 µg/kg	13	6.5 µg/kg
	CC(C)(c1ccccc1)[C@H](O)/C=C/[C@@H]1[C@H]2c3cccc(OCC(=O)O)c3O[C@H]2C[C@H]1O (relative stereo) [Compound 293, 16-methyl-16-phenyl-2,5,6,7,18,19,20-heptanor-4-oxa-4,8-inter-m-phenylene PGI2]			46 µg/kg	4.8	
13 ng/mL (≈ 29.6 nM)	CC(C)(Cc1ccccc1)[C@H](O)/C=C/[C@@H]1[C@H]2c3cccc(OCC(=O)O)c3O[C@H]2C[C@H]1O (relative stereo) [Compound 297, 16,16-dimethyl-17-phenyl-2,5,6,7,18,19,20-heptanor-4-oxa-4,8-inter-m-phenylene PGI2]			0.34 µg/kg	75	
	COCC(C)(C)[C@H](O)/C=C/[C@@H]1[C@H]2c3cccc(OCC(=O)O)c3O[C@H]2C[C@H]1O (relative stereo) [Compound 301, 16,16-Dimethyl-2,5,6,7,20-pentanor-4,18-dioxa-4,8-inter-m-phenylene PGI2]			0.36 µg/kg	16	38.5 µg/kg
	O=C(O)COc1cccc2c1O[C@H]1C[C@@H](O)[C@H](/C=C/[C@@H](O)COc3ccccc3)[C@@H]21 (relative stereo) [Compound 313, 16-Phenoxy-2,5,6,7,17,18,19,20-octanor-4-oxa-4,8-inter-m-phenylene PGI2]	310 µg/kg	420 µg/kg	2.1 µg/kg	53	21.1 µg/kg
	CC(C)(Oc1ccccc1)[C@H](O)/C=C/[C@@H]1[C@H]2c3cccc(OCC(=O)O)c3O[C@H]2C[C@H]1O (relative stereo) [Compound 317, 16-Methyl-16-phenoxy-2,5,6,7,18,19,20-heptanor-4-oxa-4,8-inter-m-phenylene PGI2]			1.3 µg/kg	62	0.49 µg/kg
	CC(C)(Oc1ccccc1)[C@H](O)/C=C/[C@@H]1[C@H]2c3cccc(C#CC(=O)O)c3O[C@H]2C[C@H]1O (relative stereo) [Compound 371, 16-Methyl-16-phenoxy-2,5,6,7,18,19,20-heptanor-3,3,4,4-tetradehydro-4,8-inter-m-phenylene PGI2]	4600 µg/kg	> 10000 µg/kg	2.4 µg/kg	8	27.9 µg/kg
0.075 ng/mL (≈ 0.192 nM)	CCC[C@H](C)C[C@H](O)/C=C/[C@@H]1[C@H]2c3cccc(OCC(=O)O)c3O[C@H]2C[C@H]1O [Compound 213, 17-(S)-Methyl-2,5,6,7-tetranor-4-oxa-4,8-inter-m-phenylene PGI2]	230 µg/kg	87 µg/kg	0.023 µg/kg	41	
0.18 ng/mL (≈ 0.445 nM)	CCCC[C@H](C)C[C@H](O)/C=C/[C@@H]1[C@H]2c3cccc(OCC(=O)O)c3O[C@H]2C[C@H]1O [Compound 218, (17S)-17-Methyl-20a-homo-2,5,6,7-tetranor-4-oxa-4,8-inter-m-phenylene PGI2]			0.045 µg/kg		0.27 µg/kg
	CCCCC[C@H](O)/C=C/[C@H]1[C@H](O)CC(=O)[C@@H]1C/C=C\CCCC(=O)O [PGE2, reference compound]				1	
